14 compounds from PubChem BioAssay (NCI) can be followed below.

Structures are written as SMILES. Values joined by “and” are separate entries in the source; they are usually repeats but may differ in a detail not shown here. Equal values may be shown once.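 Exposure lasted 48 hours, with cells grown in 96-well plates and compounds tested at five concentrations. Abbreviation: GI50, concentration required for 50% inhibition of growth. TGI: total growth inhibition.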

What all share (test): growth of human tumour cells (NCI), 48 h
The test system of assay [1] is SNB-75 CNS.
The test system of assay [2] is COLO 205 colon.
Assay [3] has as its system IGROV1 ovarian.
Assay [4] deals with LOX IMVI melanoma.
Assay [5] has as its system SK-MEL-28 melanoma.
Assay [6] has as its system MDA-N.
Assay [7] relates to RXF 393 renal.
Assay [8] relates to SK-MEL-5 melanoma.
For assay [9], the system named is MDA-MB-231 breast.
Assay [10] has as its system SF-539 CNS.

`COc1cc2c(cc1OC)C(=O)/C(=C/c1cc(C)cc(C)c1)C2`: the TGI is greater than 100 µM in [1]; 0.346 µM in assay [2]; greater than 42.4 µM in assay [3]; greater than 96.8 µM in assay [4]; greater than 100 µM in assay [5]; 0.0621 µM in [6]. Moreover, the TGI in assay [7] was determined as 0.604 µM; in [8], 0.932 µM; in assay [9], 7.44 µM.

Take `C=C1C(=O)O[C@H]2C[C@@H]1[C@@H](O)[C@H](O)[C@@H](C)CCCC(C)=CCC[C@@]2(C)O`: the TGI in assay [1] was greater than 100 µM; in [2], 28.2 µM; in assay [3], greater than 100 µM; in assay [10] it was 30.1 µM; in [4], 65 µM; in [5], 77.7 µM. Also, the TGI in assay [6] was found to be 54.6 µM; in assay [7] it was 74.1 µM; in assay [8], 48.4 µM; in assay [9], 84.4 µM.

On to `CCN1CCC(CNC(=O)c2ccc(N)cc2)N1CC` (stereo unspecified), for which the TGI in assay [1], in assay [2], in assay [3], in assay [10], in assay [5] and in [6] was greater than 100 µM in each case. Moreover, the TGI in assay [7], in assay [8] and in assay [9] was greater than 100 µM each time.

As to `CC(=O)OCC1OC(n2c(S)c(C#N)c(-c3ccccc3)c(C#N)c2=O)C(OC(C)=O)C(OC(C)=O)C1OC(C)=O` (stereo unspecified), the TGI is 56.5 µM and 72.4 µM in assay [1]; > 100 µM and 65.3 µM in assay [2]; greater than 100 µM in assay [3]; > 100 µM and 70.9 µM in assay [10]; > 100 µM and 31 µM in [4]; > 100 µM and 62.8 µM in assay [5]. Further, the TGI in [6] was > 100 µM and 86.5 µM; in [7], 59.4 µM and 59.1 µM; in [8], > 100 µM and 41.6 µM; in [9], > 100 µM and 83.7 µM. Further, the GI50 in [2] is > 100 µM and 26.1 µM; in [10], 51.6 µM and 25.7 µM; in assay [4], > 100 µM and 17.2 µM; in assay [5], > 100 µM and 25.7 µM; in assay [6] it was > 100 µM and 28.3 µM; in assay [8], > 100 µM and 20.2 µM. In addition, the GI50 in assay [9] was > 71.9 µM and 22.1 µM.

`CC1=C(C)CC2(C=C(C(C)(C)C)C(=O)C(C(C)(C)C)=C2)SC1`: the TGI in assay [1] turned out to be 34.2 µM; in [2], 32.1 µM; in [3], 29.4 µM; in [10], 38 µM; in assay [4], 33.1 µM; in [6] it was 90.3 µM. Also, the results for the TGI in assay [7], in assay [8] and in assay [9] were 38.7 µM, 27.4 µM and 29.2 µM, respectively.

For `COC(=O)C1(SC)C2CCC3C2CCC31` (stereo unspecified), the TGI in assay [1], in [2], in [3], in [10], in assay [4] and in assay [5] was greater than 100 µM each time. For the same compound, the TGI in assay [6], in [7], in assay [8] and in assay [9] was greater than 100 µM throughout.

For the compound `CCOC(=O)c1c(SC(=O)c2ccc(OC)cc2)n(-c2ccccc2)c(=S)n(-c2ccccc2)c1=O`, the TGI in assay [1] was greater than 100 µM; in assay [2], greater than 100 µM; in assay [3] it was 38 µM; in [10], 42.2 µM; in assay [4], greater than 100 µM; in assay [5], greater than 100 µM. The values for the TGI in assay [6], in assay [7] and in assay [9] were greater than 100 µM, greater than 100 µM and 81 µM, respectively.

For the compound `C=C(Cl)C(Cl)(CCl)CCC(Br)C(C)(C)Br` (stereo unspecified), the TGI in [1], in assay [2], in [3], in assay [10], in assay [5] and in assay [6] was greater than 10 µM in each case. The TGI in [7], in assay [8] and in assay [9] was greater than 10 µM throughout.

With `O=C1C(c2c(O)[nH]c3ccc(Br)cc23)=Nc2ccc(Br)cc21`, the TGI in [1] was 41.3 µM; in assay [2], greater than 100 µM; in assay [3], greater than 100 µM; in assay [4], greater than 100 µM; in assay [5], greater than 100 µM; in assay [6] it was 63 µM. Moreover, the results for the TGI in assay [7], in assay [8] and in assay [9] were 40.7 µM, greater than 100 µM and 79.5 µM, respectively.

Regarding `C(#CP(c1ccccc1)c1ccccc1)P(C#CP(c1ccccc1)c1ccccc1)c1ccccc1`, the TGI in [1], in [2], in assay [3], in [10], in assay [5] and in assay [6] was greater than 100 µM in each case. Besides, the TGI in [7], in assay [8] and in assay [9] was greater than 100 µM in each case.

For the compound `Nc1nc(Cl)c(Cl)c(NCC2(O)CCC2)n1`, the TGI in assay [1], in [3], in assay [10], in [4], in assay [5] and in assay [6] was greater than 100 µM throughout. Moreover, the TGI in assay [7], in assay [8] and in assay [9] was greater than 100 µM throughout.

Regarding `CCCCOC(=O)C1CC[C@H]2[C@@H]3CCc4cc(OC(=O)c5cccc6c(=O)c7ccccc7[nH]c56)ccc4[C@H]3CC[C@]12C` (stereo partly specified), the TGI stood at 18.3 µM in assay [1]; 13.8 µM in assay [2]; 14.9 µM in [3]; 17.1 µM in [4]; 21.2 µM in assay [5]; 14.5 µM in assay [6]. Moreover, the TGI in [7] was determined as 17 µM; in assay [8], 12.8 µM; in assay [9], 14.5 µM.

Take `O=C(O)c1nc2ccc(C(F)(F)F)cc2nc1Nc1ccc(F)cc1`: the TGI in assay [1] was 60 µM; in assay [2], 44.1 µM; in assay [3], 62.6 µM; in assay [4], 53.3 µM; in [5], greater than 100 µM; in [6] it was 79.6 µM. The figures for the TGI in [7], in assay [8] and in [9] were 31.5 µM, greater than 100 µM and 65.6 µM, respectively.

Take `O=C(NO)NCCCl`: the TGI in assay [1], in assay [2], in assay [3], in assay [10], in assay [4] and in assay [6] was greater than 100 µM each time. For the same compound, the TGI in assay [7], in [8] and in [9] was greater than 100 µM throughout.
